≈ marks a conversion by molar mass, not a printed value.
Tests used:
[1] = test system: HCV replicon cells (human hepatoma Huh-7); experiment: Cytotoxicity test (Cell Counting Kit-8); type: cell-based; details: Table 1
Description: (§1) The cytotoxicity of the samples was measured by Cell Counting Kit-8 (CCK-8; Dojindo Molecular Technologies) according to the manufacture's instructions. Briefly, 10 μl/a well of CCK-8 reagent were added to the HCV replicon cells cultured in a 96-well plate and then incubated at 37° C. for 60 min. The absorbance of each well was measured at 450 nm with a reference wavelength at 650 nm using an Emax Precision microplate reader (Molecular Devices Inc.). Cell viability was calculated as relative index of control cells and effects of samples and was expressed as the concentration of samples required for 50% cytotoxicity of the cells (CC50).

HCV replicon = experiment: HCV replication suppressive activity test (replicon assay, luciferase); type: cell-based, Hepatitis C virus; details: for HCV replication suppressive (inhibitory) activity, in words: replicon cell assay
Description: The HCV-replicon cell line was established by transducing sub-genomic RNA into human hepatoma Huh-7 cell cytoplasm. The sub-genomic RNA was prepared by replacing the translated region of HCV genome RNA structural proteins with firefly luciferase gene, internal ribosome entry site (IRES) of the encephalomyocarditis virus and neomycin phosphotransferase gene. The cell line obtained was used for assessment of production of HCV replicon RNA. The production quantity of HCV replicon RNA was measured by the luciferase assay method. (Lohmann et al., Science 285, (1999) 110; Sakamoto et al. Nat. Chem. Biol. 1, (2005) 333)
In order to determine replication quantity of HCV-RNA, luciferase genes from firefly were transduced into HCV-RNA as a reporter gene. The gene transduction was carried out according to the method of Krieger et al. (See; Krieger et al. J. virol. 75, (2001) 4614) in such manner that luciferase genes were fused together neomycin-resistant genes beneath the IRES of HCV gene.
With this HCV subgenome, the replication efficiency of HCV could be estimated by measuring luciferase activity in the HCV replicon cells. The HCV replicon cells used were routinely grown in DMEM (Gibco cat. No. 10569-010) supplemented with Glutamax (Invitrogen), 10% fetal bovine serum (FBS), 1% penicillin/streptomycin (Invitrogen) and 500 μg/ml G418 (Invitrogen). The cells were maintained at 37° C. in humidified atmosphere containing 5% CO2. For the HCV replication assay, the replicon cells in DMEM supplemented with Glutamax and 5% FBS were seeded in a 96-well plate so as to fill every well with 5000 cells, and incubated for 24 hours.
The test was carried out in such a way that the HCV replicon cells were cultured for 72 hours after adding test samples in different concentrations. The Quantity of the luciferase activity was determined by the Steady-Glo Luciferase Assay System (Promega) according to the manufacture's instructions and the luminescence was measured by DTX 800 Multimode Detector (Beckman). In this test, the replication inhibitory activity is expressed as a concentration of samples required for inhibiting 50 percents of the replication of HCV replicon cell (IC50). Specific activity is a reciprocal number of IC50 (1/IC50). Total activity is calculated by multiplying the yield weight of the HCV replicon cell by specific activity.

[2] = Cytotoxicity test (Cell Counting Kit-8); type: cell-based, human; details: human; HCV replicon cells; Table 1
Description: as §1

[3] = HCV replicon cells, 72 hours, Table 1

## Oc1cc(O)c2c(c1)O[C@H](c1ccc(O)c(O)c1)[C@H](O)[C@H]2c1c(O)cc(O)c2c1O[C@H](c1ccc(O)c(O)c1)[C@H](O)C2 [Procyanidin B2]
[1]
  Cytotoxicity CC50: >25.0 µg/mL
HCV replicon; [3]
  Replication suppressive activity IC50: >25.0 µg/mL
HCV replicon
  HCV replication suppressive (inhibitory) activity, in words: no anti-HCV production activity

## Catechin
HCV replicon; [3]
  Replication suppressive activity IC50: 16.18 µg/mL
HCV replicon; Table 1
  Ratio CC50/IC50: 6.2
HCV replicon
  HCV replication suppressive (inhibitory) activity, in words: no anti-HCV production activity

## Oc1cc(O)c2c(c1)O[C@H](c1ccc(O)c(O)c1)[C@H](O)C2 [Epicatechin]
[2]
  CC50: 114 µg/mL (≈ 392 µM)
HCV replicon; Hepatitis C virus, HCV replicon cells, 72 hours, Table 1
  IC50: 27.3 µg/mL (≈ 94.1 µM)
HCV replicon; Table 1
  Ratio CC50/IC50: 4.2

## O=C(/C=C/c1ccc(O)c(O)c1)O[C@@H]1C[C@](O)(C(=O)O)C[C@@H](O)[C@H]1O [chlorogenic acid]
HCV replicon
  HCV replication suppressive (inhibitory) activity, in words: seem not to have the inhibition activity
